This is an account of results in paper PMC8361937, “Multifunctional Heterometallic Ir^III−Au^I Probes as Promising Anticancer and Antiangiogenic Agents” (Chemistry (Weinheim an Der Bergstrasse, Germany), 2021).

Data set [1] concerns ucb‐ECFCs. As to the kind of experiment: Annexin V-FITC/PI apoptosis determination in ucb-ECFCs. The note with it: 4 μM, 3 h. It is filed as cell-based, human. On the procedure: (§1) An apoptosis determination test was performed under acute conditions, that is, incubation for a short period of time (3 h) and high concentration of complexes (4 μM; Table 4). A different response was observed regarding the origin of the ECFCs. While the cytotoxic effect on ucb‐ECFCs was similar for all complexes (ca. 20 %), mortality levels of 50 % were achieved on apb‐ECFCs with complexes 1 and 4. On the contrary, complex 2 appeared to be no toxic under these conditions.
(§2) For apoptosis assessment on ECFCs cells exposed to 1, 2 and 4 complexes, an Annexin V apoptosis detection kit (Immunostep), with FITC‐conjugated Annexin V and propidium iodide (PI), was used. Cells were incubated during 3 h with 1, 2 and 4 at 4 μM, gently detached from cell culture surface with Accutase (Corning) and resuspended in D‐PBS, and stained with FITC‐conjugated annexin V and PI according to manufacturer instructions. Data were acquired using a Gallios Flow Cytometer (Beckman Coulter), and Kaluza v2.1 (Beckman Coulter) software was used for data analysis.

Data set [2] has as its system apb‐ECFCs. The data set is described as follows: Annexin V-FITC/PI apoptosis determination in apb-ECFCs. It is filed as cell-based, human. The note with it: 4 μM, 3 h; for Early apoptotic / Late apoptotic / Necrotic / Viable: apb ECFCs; for Mortality level: apb‐ECFCs. On the procedure: as §1, §2
In a further data set the test system is ECFCs. The data set is described as follows: In vitro tube formation (angiogenic activity) assay. The note with it: 0.25 μM, 20 h, ucb- and apb-ECFCs. It is filed as cell-based, human. On the procedure: In vitro tube formation assay is a highly informative test to probe angiogenic ability of endothelial cells.[55] This observation could be the basis to consider their potential antiangiogenic activity and develop complementary assays in more physiologically relevant models. […] The mechanisms involved in this effect deserve further research.
Tube formation assay: Endothelial cells (10 000 cell/well) suspended in cell culture medium containing each compound at 0.25 μM or vehicle (DMSO) were seeded over Cultrex® Reduced Growth Factor Basement Membrane Matrix (Trevigen) gelled (37 °C for 30 min) in wells of μ‐Slide Angiogenesis coverslips (ibidi). DMSO concentration in the medium was below 0.5 %. Cells were then incubated for a 20 h period with the treatments. Images were acquired with a Moticam 3 digital camera system (Motic) through a CK40 inverted microscope (Olympus) using a 10x objective.

Data set [3] relates to A549 cells. The data set is described as follows: Cell death mechanism by Annexin V-DY634/7-AAD flow cytometry with or without Z-VAD-fmk. The data set is classed as cell-based, human. The note with it: 24 and 48 h, 30 μM Z‐VAD‐fmk. The protocol:
For flow cytometry analysis, phosphatidylserine exposure on cell surface as an “early apoptosis” marker and cell membrane damage as necrosis indicator were evaluated with Annexin V‐DY634 (apoptosis) and the DNA‐labelling dye 7‐AAD (necrosis) staining. […] As shown in Figures 4 and S22 (top graphs), cells are distributed in three populations. Annexin V‐DY634‐only positive cells are indicative of an early apoptotic process, a 7‐AAD‐only labelled cell population represents exploded cells as a typical endpoint of necrotic cell death, and the doubly stained population implies that cells started being apoptotic and then eventually burst, a phenomenon known as “late apoptosis”. It is remarkable that late apoptosis state was easily reached at higher concentrations for both complexes. […] As both compounds activate apoptotic pathway, we wanted to unveil whether caspases were implicated in the cell death process by using the pan‐caspase inhibitor Z‐VAD‐fmk.
Cytotoxicity assays: Apoptotic and necrotic cell death was determined by measuring phosphatidylserine exposure on cell surface and cell membrane permeabilisation, respectively, in A549 cells. […] Cell death was analysed using CellQuest Pro (BD Biosciences), FlowJo 7.6.1 (Becton Dickinson (BD), USA) and GraphPad Prism 5 (GraphPad Software, USA) software.

Data set [4] concerns A549 cells. The data set is described as follows: Mitochondrial transmembrane potential analysis (TMRE, flow cytometry). It is filed as cell-based, human. The note with it: 48 h. An excerpt:
TMRE is a positively charged dye that accumulates in cells with active mitochondria as consequence of their net internal negative charge but several cell insults, including chemotherapeutic agents, lead to mitochondrial depolarisation and thus TMRE incorporation fails. A shift is seen in the pattern staining for complexes 1 (Figure S29) and 4 (Figure 13) in comparison with untreated cells and this overlaps with that seen when treating cells with S63845 (positive control), a selective inhibitor of the Mcl‐1 antiapoptotic protein involved in the regulation of the mitochondrial apoptotic pathway.
Mitochondrial transmembrane potential analysis: Integrity of the mitochondrial outer membrane was evaluated by measuring disruption of mitochondrial transmembrane potential. For this assay, 10^5 A549 cells/mL were seeded in complete medium in flat‐bottom, 12‐well plates (1 mL/well) and allowed to attach for 24 h prior to addition of compounds. Cells were treated for 48 h with compound 4 at 150 μM in duplicate. Then, they were trypsinised, resuspended in 500 μl of a mixture of complete medium and 60 nM of the tetramethilrhodamine ethyl ester (TMRE) probe and incubated at 37 °C in the dark for 20 min. Finally, a total of 10 000 cells were acquired on a FACSCalibur flow cytometer (BD Biosciences) and data were analysed using the aforementioned software.

The subject of data set [5] is A549 lung carcinoma cells. The data set is described as follows: MTT-reduction cell viability assay in A549 cells. It is filed as cell-based, human. The note with it: 24 h incubation. The protocol:
In vitro bioactivity of complexes 1 to 4 as well as their dimer precursor was determined by MTT‐reduction assays in A549 lung carcinoma cells (Table 2). […] Cells show an increased sensitivity to the heterobimetallic species bearing a phosphine or a thiocytosine group as gold ancillary ligand, complexes 2 and 4 respectively. The higher balance of the lipo‐ vs hydrophilicity of triphenylphosphine[35] of complex 2, or the bio‐friendly nature of the thiocytosine ancillary ligand[36, 37] in the case of complex 4 might promote an increase of the cell permeabilisation and thus display a greater antiproliferative activity.
Cell culture: A549 (human lung carcinoma) cell line (from ATCC, USA) was routinely cultured in high glucose DMEM medium supplemented with 5 % foetal bovine serum (FBS), L‐glutamine and penicillin/streptomycin (hereafter, complete medium).
Cell viability assays : The MTT‐reduction assay was used to analyse cell metabolic activity as an indicator for cell sensitivity to the complexes in A549 cell line. 10^5 cells/mL were seeded in complete medium in flat‐bottom, 96‐well plates (100 μL/well) and allowed to attach for 24 h prior to addition of compounds. The complexes were dissolved in DMSO and added to cells in concentrations ranging from 0.5 to 50 μM in quadruplicate. Cells were incubated with our compounds for 24 h and then 10 μL of MTT (5 mg mL^−1 in PBS) were added to each well and plates were incubated for 2 h at 37 °C. Finally, culture medium was removed and DMSO (100 μL/well) was added to dissolve the formazan crystals. The optical density was measured at 550 nm using a 96‐well multiscanner autoreader (ELISA) and IC50 was calculated. Each compound was analysed at least in three independent experiments.

Data set [6] relates to A549 cells. The data set is described as follows: ROS production measurement (CellROX, flow cytometry). The data set is classed as cell-based, human. The note with it: 24 h, up to 80 % of IC50. On the procedure:
The generation of ROS was analysed by flow cytometry using a fluorogenic CellROX^TM assay kit. Complexes 1 and 4 were selected for the experiment to discriminate between the effects that might drive the presence of the gold fragment. […] Such increment might be in fact associated with the presence of the gold fragment as many reported gold species have shown to induce oxidative stress.[43] Therefore, this experiment seems to indicate that the introduction of the gold fragment activates to a higher extent the mechanisms of ROS generation in A549 cells.
ROS production measurement: 5×10^5 A549 cells/well were seeded in complete medium in flat‐bottom, 6‐well plates (3 mL/well) and allowed to attach for 24 h prior to addition of the compound. Complexes 1 and 4 were dissolved in DMSO and added to cells up to concentration of 80 % (IC50) in duplicate. Cells were incubated with the complexes for 24 h and subsequently, they were trypsinised and the CellROX®Green Flow cytometry assay kit (C10492) was used to evaluate the generation of ROS in a Gallios Flow Cytometer (Beckman Coulter) using Kaluza v2.1 software for data analysis.

For data set [7], the system named is apb‐ECFCs. The data set is described as follows: Crystal violet cell viability assay in apb-ECFCs. It is filed as cell-based, human. The note with it: 24 h. On the procedure: (§3) Effects on the cell viability related to compounds 1, 2 and 4 were analysed by crystal violet assays in ucb‐ECFCs and apb‐ECFCs. Both kinds of cells show a dose‐dependent sensitivity to the complexes after 24 h of treatment (Figure S30). IC50 values were on the range 1.1‐3.6 μM, ucb‐ECFCs being more sensitive than apb‐ECFCs to the compounds (Table 3), which could be associated to the increased proliferative activity of the ucb‐ECFCs.
(§4) Endothelial colony forming cells (ECFC) were isolated from umbilical cord blood from healthy births but unsuitable for transplantation (ucb‐ECFCs), or from peripheral blood of adult healthy donors (apb‐ECFCs) following the method described by Ingram et al.[57] with minor modifications. […]
(§5) For ECFCs cell viability determination, crystal violet assays were performed. […] Estimation of cell density was achieved by solubilisation of cell‐retained crystal violet with 10 % acetic acid solution and absorbance measurement at 540 nm in a Synergy HD system (BioTek). Data were analysed with SAIC50 v1.5.10 (http://gauss.inf.um.es:8080/IC50/) using the four‐parameter logistic function to calculate IC50 values according to Sebaugh et al.[58]

Data set [8] deals with ucb‐ECFCs. The data set is described as follows: Crystal violet cell viability assay in ucb-ECFCs. It is filed as cell-based, human. The note with it: 24 h. The protocol:
as §3, §4, §5

Data set [9] deals with A549 lung carcinoma cells. The note with it: cited from earlier work.

Where two headings read alike, the source gives them in different places.

In the case of `F[P-](F)(F)(F)(F)F.c1ccc([P+]2(c3ccccc3)C[P+](c3ccccc3)(c3ccccc3)[Ir-3]234([c]2ccccc2-c2cccc[n+]23)[c]2ccccc2-c2cccc[n+]24)cc1` [Complex 1, [Ir(ppy)2(dppm)]PF6], in the data set on ucb‐ECFCs [1], the Early apoptotic stood at 1.12%, the Late apoptotic is reported as 21.81%, the Necrotic came to 3.96% and the Viable is listed as 73.10%. Also, in the data set with apb‐ECFCs [2], the Early apoptotic turned out to be 8.30%, the Late apoptotic amounted to 51.93%, the Necrotic came to 9.02% and the Viable came out at 30.75%. In the data set on apb‐ECFCs [2], this compound came in with a Mortality level of 50%. For the same compound, in the data set with ECFCs, the “Tube formation activity of ECFCs on Cultrex matrix” value is “reduced although not completely impaired”. In the data set on A549 cells [3], the “Cell death mechanism (effect of pan-caspase inhibitor Z-VAD-fmk)” value was “caspase‐independent cell death mechanism”. Further, the “Disruption of mitochondrial transmembrane potential (TMRE staining)” value in the data set with A549 cells [4] is on record as “complete disruption of mitochondrial transmembrane potential”. In data set [5], this compound registered an IC50 of 1000 ± 80 nM. For the same compound, the ROS generation result in the data set with A549 cells [6] is “dose‐dependent increase in the generation of ROS”. Besides, the IC50 with apb‐ECFCs [7] was 2710 nM. Further, the IC50 in the data set with ucb‐ECFCs [8] turned out to be 1160 nM.
As to `F[P-](F)(F)(F)(F)F.c1ccc([P+]([Au-][CH]2[P+](c3ccccc3)(c3ccccc3)[Ir-3]34([c]5ccccc5-c5cccc[n+]53)([c]3ccccc3-c3cccc[n+]34)[P+]2(c2ccccc2)c2ccccc2)(c2ccccc2)c2ccccc2)cc1` [Complex 2], in the data set on ucb‐ECFCs [1], the Early apoptotic is reported as 0.93%, the Late apoptotic is listed as 17.24%, the Necrotic turned out to be 5.01% and the Viable turned out to be 76.82%. In the data set with apb‐ECFCs [2], this compound had an Early apoptotic of 9.22%, a Late apoptotic of 8.40%, a Necrotic of 0.14% and a Viable of 82.25%. Also, in the data set with apb‐ECFCs [2], the Mortality level entry was “no toxic”. Also, in the data set with ECFCs, the “Tube formation activity of ECFCs on Cultrex matrix” value is “reduced although not completely impaired”. This compound also displayed an IC50 in data set [5] of 800 ± 60 nM. Besides, the IC50 in the data set on apb‐ECFCs [7] is 3520 nM. Further, the IC50 in the data set on ucb‐ECFCs [8] came out at 2630 nM.
The compound `[Cl][AuH][CH]1[P+](c2ccccc2)(c2ccccc2)[Ir-3]23([c]4ccccc4-c4cccc[n+]42)([c]2ccccc2-c2cccc[n+]23)[P+]1(c1ccccc1)c1ccccc1` [Complex 3] registered an IC50 in [5] of 1700 ± 80 nM.
In the case of `N.N.[Cl][Pt][Cl]` [cisplatin, reference compound], the IC50 in data set [9] is 20800 ± 2100 nM.
Compound `c1cc[c]2c(c1)-c1cccc[n+]1[Ir-3]213([Cl+][Ir-3]24([Cl+]1)([c]1ccccc1-c1cccc[n+]12)[c]1ccccc1-c1cccc[n+]14)[c]1ccccc1-c1cccc[n+]13` [dimer, [Ir(ppy)2(μ‐Cl)]2] displayed an IC50 in data set [5] of more than 50000 nM.
